In the Kinase Knowledgebase extract (Sharma et al. 2016) one finds IC50 data, which are given here for 15 compounds.

A value given as a limit tells only on which side of the number the result lay.

Assay [1] has as its target CDK2 (Human) (UniProt P24941). In words: Enzyme Assay.
Assay [2] addresses CDK2 (Human) (UniProt P24941). In words: Enzyme Assay. The source holds these as a separate data set.

For `CCN(CC)C(=O)c1ccc(Nc2nc(OCC3CCCCC3)c3[nH]cnc3n2)cc1`, the IC50 against CDK2 (Human) [1] worked out at 6470 nM; against CDK2 (Human) [2], 4490 nM.

Take `Cc1ccc([N+](=O)[O-])cc1S(=O)(=O)N(C)/N=C/c1cnc2ccc(Br)cn12`: the IC50 was found to be 168 nM on CDK2 (Human) [1] and 278 nM on CDK2 (Human) [2].

For the compound `CC(C)c1[nH]n(-c2c(Cl)cccc2Cl)c2nc(Cc3ccc(OCCO)cc3)nc(=O)c1-2`, the IC50 was found to be 67 nM against CDK2 (Human) [1] and 141 nM at CDK2 (Human) [2].

Regarding `CC(=O)O/N=C1/C(=C2/C(=O)Nc3cc(Br)ccc32)Nc2ccccc21`, the IC50 at CDK2 (Human) [1] amounted to 78300 nM; against CDK2 (Human) [2] it was 787 nM.

With `O=C1NC(=O)c2c1c1c3ccccc3n3c1c1c2c2ccccc2n1C1CCC3O1`, the IC50 stood at 283 nM on CDK2 (Human) [1] and 871 nM against CDK2 (Human) [2].

In the case of `CCCCCCCCCCCCCCCCn1cc[n+](Cc2ccccc2)c1C`, the IC50 is 3910 nM against CDK2 (Human) [1] and 24500 nM at CDK2 (Human) [2].

`CC(C)[C@H](CO)Nc1nc(Nc2cccc(Cl)c2)c2ncn(C(C)C)c2n1`: the IC50 is 503 nM against CDK2 (Human) [1] and 204 nM at CDK2 (Human) [2].

Consider `N#CCCc1ccc2c(c1)-c1[nH]c3ccc([N+](=O)[O-])cc3c1CC(=O)N2`, for which the IC50 was 216 nM at CDK2 (Human) [1] and 333 nM on CDK2 (Human) [2].

At CDK2 (Human) [2], `NC1=NC(=O)/C(=C2\CCNC(=O)c3[nH]c4ccccc4c32)N1` gave an IC50 of 1280 nM.

Take `O=C1Nc2ccc3ncsc3c2/C1=C/c1cnc[nH]1`: the figures for the IC50 against CDK2 (Human) [1] and at CDK2 (Human) [2] were 94 nM and 135 nM, respectively.

In the case of `Cn1cc(C2=C(c3cn(CCCSC(=N)N)c4ccccc34)C(=O)NC2=O)c2ccccc21`, the figures for the IC50 against CDK2 (Human) [1] and against CDK2 (Human) [2] were 147 nM and 318 nM, respectively.

`O=C1Nc2ccc(I)cc2/C1=C1/Nc2ccccc2/C1=N\O`: the IC50 turned out to be 1520 nM at CDK2 (Human) [1] and 379 nM against CDK2 (Human) [2].

Take `COc1cc(Nc2ncc3ccn(-c4cccc(CCC#N)c4)c3n2)cc(OC)c1OC`: the IC50 on CDK2 (Human) [1] and on CDK2 (Human) [2] was over 25000 nM in each case.

As for `O=C1Nc2ccccc2C1=C1Nc2ccccc2C1=NOCCC(O)CO` (stereo not drawn), the IC50 at CDK2 (Human) [2] was found to be 930 nM.

For `CC(C)n1cnc2c(NCc3ccccc3O)nc(NCCCO)nc21`, the half-inhibitory concentration (IC50) against CDK2 (Human) [1] was 1210 nM; against CDK2 (Human) [2] it was 506 nM.
